Here are results for 14 molecules from PubChem BioAssay (NCI).

Molecules are shown by their SMILES.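 Grown in 96-well plates, cells were treated for 48 hours with each compound at five concentrations. Insufficient inhibition: endpoint recorded as highest concentration tested. GI50 marks 50% less growth. TGI is the concentration that stops growth completely.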 A value given as a limit tells only on which side of the number the result lay.

Common to all, as to assay: NCI anticancer screen, dose series, 48 h
Test [1] deals with A498 renal.
The subject of test [2] is EKVX NSCLC.
Test [3] concerns HOP-62 NSCLC.
The test system of test [4] is LOX IMVI melanoma.
Test [5] concerns M14 melanoma.
The test system of test [6] is RXF 393 renal.
Test [7] deals with SN12C renal.
Test [8] relates to SNB-19 CNS.
In test [9] the test system is TK-10 renal.

With `O=S(=O)(O)C(F)(F)C(F)(F)C(F)(F)C(F)(F)F`, the TGI in [1], in test [2], in test [3], in [4], in [5] and in test [6] was > 100 µM each time. The TGI in test [7], in [8] and in test [9] was > 100 µM throughout.
On to `CCNC(=O)C(O)C1(O)CCC2[C@@H]3CCC4=CC(=O)C=C[C@]4(C)C3[C@@H](O)C[C@@]21C` (stereo not given in full), for which the TGI in test [2], in test [3], in [4], in test [5], in test [6] and in test [7] was > 100 µM each time. Moreover, the TGI in [8] and in test [9] was > 100 µM in each case.
Regarding `[N-]=[N+]=Nc1ncc(-c2ccc(C(F)(F)F)cc2)c(NC2CCCCCC2)n1`, the GI50 in test [1], in test [3], in [4], in test [5], in test [6] and in test [7] was > 10 µM each time. Further, the GI50 in test [8] and in test [9] was > 10 µM each time. Also, the TGI in test [1], in test [3], in test [4], in test [5], in test [6] and in test [7] was > 10 µM in each case. For the same molecule, the TGI in [8] and in test [9] was > 10 µM throughout.
On to `C/C(=N\NC(N)=S)c1ccc2c(c1)OCO2`, for which the TGI in test [1], in test [2], in test [3], in test [4], in test [5] and in test [6] was > 100 µM in each case. Also, the TGI in [7], in test [8] and in [9] was > 100 µM each time.
`CCCOc1ccc(/C=C/c2cc(OC)c(OC)c(OC)c2)cc1`: the TGI in test [1] was > 22.6 µM; in test [2] it was > 100 µM; in test [3], > 100 µM; in test [4], > 50.5 µM; in test [5], > 100 µM; in [6], 0.904 µM. The TGI was > 74 µM in test [7], > 100 µM in test [8] and > 100 µM in [9]. Moreover, in test [3], the GI50 is 0.32 µM.
Regarding `O=c1cc/c(=N\Nc2ccccc2)c(=O)/c1=N/Nc1ccccc1`, the GI50 in test [1], in test [2], in test [3], in test [4], in test [5] and in test [6] was > 50 µM throughout. For the same molecule, the GI50 in [7], in [8] and in [9] was > 50 µM in each case. The TGI in [1], in test [2], in test [3], in test [4], in test [5] and in test [6] was > 50 µM in each case. The TGI in [7], in [8] and in [9] was > 50 µM each time.
For `O=S(=O)(CC1=NC2C=CC=CC2N=C1)NCc1ccccc1` (stereo not given), the TGI in test [1], in [2], in test [3], in test [4], in test [5] and in [6] was > 100 µM each time. The TGI in test [7], in test [8] and in test [9] was > 100 µM throughout.
As for `C=CCOc1cc2c(cc1C(C)c1ccc(OC)cc1)OCO2` (stereo not given), the TGI in test [1] was > 100 µM; in [2], > 100 µM; in [3], > 62.7 µM; in test [4], > 83.9 µM; in test [5], > 42.8 µM; in test [6], 0.485 µM. In addition, the TGI in test [7], in test [8] and in test [9] was > 100 µM in each case.
On to `CSC(=S)N(C)c1nc(=[N+](C)C)ss1`, for which the TGI in test [1], in [2], in [3], in test [5], in [6] and in test [7] was > 100 µM throughout. Moreover, the TGI in test [8] and in test [9] was > 100 µM throughout.
Turning to `C/C(=N\NC(N)=S)c1ccc(/C(C)=N/NC(N)=S)cc1`, the TGI in test [1], in test [2], in test [3], in [4], in test [5] and in test [6] was > 100 µM in each case. The TGI in [7], in [8] and in test [9] was > 100 µM in each case.
Take `CCCCCCCCCCCCCCCC(=O)NC1CCc2cc(O)c(O)c(O)c2-c2ccc(SC)c(=O)cc21` (stereo not given): the TGI in test [1] was found to be 39.5 µM; in [2], 39.7 µM; in [3], 25.4 µM; in [4] it was 24.8 µM; in test [5], 25 µM; in [6] it was 7.66 µM. For the same molecule, the TGI is 35.8 µM in test [7], 23.4 µM in test [8] and 30.2 µM in test [9].
`COC(=O)c1c/c(=N\NC(=O)CC(=O)Nc2ccccc2Cl)c2ccccc2o1`: the TGI in test [2], in test [3], in test [4], in test [5], in [7] and in test [8] was > 100 µM in each case. For the same molecule, the TGI in test [9] is > 100 µM.
For `Cc1cccc(C(C)(C)C)c1NC(=O)CC1C(=O)Nc2ccccc2S1=O` (stereo not given), the TGI in test [3], in [4], in [5], in [7], in test [8] and in [9] was > 100 µM throughout.
For the molecule `O=C(CC(=O)Nc1ccc(Cl)cc1)NNCC(=O)Nc1nc(-c2ccccc2)cs1`, the TGI in test [2], in test [3], in [4], in [5], in test [6] and in test [7] was > 100 µM throughout. Besides, the TGI in test [8] and in test [9] was > 100 µM in each case.
